Results from patent US10906863B1, “Hydroxytyrosol 4-methoxycinnamic acid ester with antibacterial activity and a method of preparing the same” (SHAANXI UNIVERSITY OF SCIENCE AND TECHNOLOGY, priority 2020, dated 2021).
Values after ≈ are worked out from the molar mass of the structure shown.

What was measured:
Type in all cases: cell-based
[1] = tested on: methicillin-resistant Staphylococcus aureus MRSA 18-222; experiment: MIC by microbroth dilution, MRSA 18-222; conditions: for Minimum Bacteriostatic Concentration: strain MRSA 18-222, microbroth dilution, 37° C., 20-22 hours
Description: (§1) The minimal inhibitory concentration (MIC) of the compound as determined by a microbroth dilution method with gentamicin, cefazolin sodium and ceftriaxone sodium as positive control.
(§2) The experimental strains included methicillin-resistant Gram-positive bacteria: methicillin-resistant Staphylococcus aureus MRSA 18-222, 18-575; multiple drug-resistant […] bacteria: vancomycin-resistant enterococci VRE 18-80,18-94, multidrug-resistant Pseudomonas aeruginosa MDR-PA 18-1774,18-202, carbapenem-resistant Acinetobacter baumannii CR-AB 18-183,18-560. All the experimental strains were donated by Huashan Hospital affiliated to Fudan University (Institute of antibiotics, Fudan University) and used after routine identification.
(§3) Preparation of MHB medium: 20.0 g MHB medium was added to 1 L distilled water, boiled until completely dissolved, packed in conical bottles and sterilized at 121° C. for 15 min.
(§4) The experimental strain was cultured to the logarithmic growth phase: under aseptic condition, the experimental strain was inoculated into 100 mL MHB medium and incubated in a constant temperature and humidity incubator at 37° C. for 20-22 hours.
(§5) Preparation of storage solution: weigh the sample to be tested, dissolve it with 1% DMSO solution, prepare a storage solution with a concentration of 2560 μg/mL, weigh a positive reference substance, dissolve it with aseptic distilled water, and configure a storage solution with a concentration of 2560 μg/mL.
(§6) Under aseptic condition, the experimental strains cultured to logarithmic growth phase were adjusted to 0.5 MCF turbidity standard with MHB medium and […], and the bacterial suspension with concentration of 10^6 CFU/mL was prepared for standby.
(§7) Dilution of storage solution and inoculation of experimental strain: under aseptic condition, the storage solution was diluted to 256 μg/mL solution. Take a sterile 96-well plate, add 200 μL MHB medium to the 12th well, and add 100 μL MHB medium to each well. Add 100 μL of positive control solution to the first well, mix well, and suck 100 μL from it and discard. Add 100 μL of the compound sample solution to the second well, mix well, and then pipette 100 μL to the third well. After mixing, pipette 100 μL to the fourth well, and dilute to the 11th well in this way. Finally, 100 μL was pipetted from the 11th well and discarded. The 12th hole was the growth control without drugs. So far, the concentration of the positive reference substance is 128 μg/mL, the concentrations of the sample solution are 128, 64, 16, 8, 4, 2, 1, 0.5, 0.25 μg/mL respectively. Then, 10 μL of the prepared bacterial suspension is added to each well, so that the final concentration of the bacterial liquid in each well is 5×10^5 CFU/mL.
(§8) Incubation: Cover the 96-well plate inoculated with the experimental strains, and incubate in a constant temperature and humidity box at 37° C. for 20-22 hours.
(§9) In FIGS. 1-10, the twelve wells represent twelve groups, from left to right, positive, 128 μg/mL, 64 μg/mL, 32 μg/mL, 16 μg/mL, 8 μg/mL, 4 μg/mL, 2 μg/mL, 1 μg/mL, 0.25 μg/mL, 0.0625 μg/mL, Negative.

[2] = tested on: methicillin-resistant Staphylococcus aureus MRSA 18-575; experiment: MIC by microbroth dilution, MRSA 18-575; conditions: strain MRSA 18-575, 37° C., 20-22 hours
Description: as §1, §2, §3, §4, §5, §6, §7, §8, §9

[3] = tested on: vancomycin-resistant enterococci VRE 18-80; experiment: MIC by microbroth dilution, VRE 18-80; conditions: strain VRE 18-80, 37° C., 20-22 hours
Description: as §1, §2, §3, §4, §5, §6, §7, §8

[4] = tested on: vancomycin-resistant enterococci VRE 18-94; experiment: MIC by microbroth dilution, VRE 18-94; conditions: strain VRE 18-94, 37° C., 20-22 hours
Description: as §1, §2, §3, §4, §5, §6, §7, §8

[5] = tested on: multidrug-resistant Pseudomonas aeruginosa MDR-PA 18-174; experiment: MIC by microbroth dilution, MDR-PA 18-174; conditions: for Minimum Bacteriostatic Concentration: strain MDR-PA 18-174, microbroth dilution, 37° C., 20-22 hours
Description: as §1, §2, §3, §4, §5, §6, §7, §8, §9

[6] = tested on: multidrug-resistant Pseudomonas aeruginosa MDR-PA 18-202; experiment: MIC by microbroth dilution, MDR-PA 18-202; conditions: strain MDR-PA 18-202, 37° C., 20-22 hours
Description: as §1, §2, §3, §4, §5, §6, §7, §8

[7] = tested on: carbapenem-resistant Acinetobacter baumannii CR-AB 18-183; experiment: MIC by microbroth dilution, CR-AB 18-183; conditions: strain CR-AB 18-183, 37° C., 20-22 hours
Description: as §1, §2, §3, §4, §5, §6, §7, §8

[8] = tested on: carbapenem-resistant Acinetobacter baumannii CR-AB 18-560; experiment: MIC by microbroth dilution, CR-AB 18-560; conditions: strain CR-AB 18-560, 37° C., 20-22 hours
Description: as §1, §2, §3, §4, §5, §6, §7, §8

[9] = tested on: drug-resistant bacteria; experiment: Antibacterial activity test, whole panel of drug-resistant strains; conditions: summary over the tested drug-resistant strains
Description: as §1, §2, §3, §4, §5, §6
Dilution of storage solution and inoculation of experimental strain: under aseptic condition, the storage solution was diluted to 256 μg/mL solution. Take a sterile 96-well plate, add 200 μL MHB medium to the 12th well, and add 100 μL MHB medium to each well. Add 100 μL of positive control solution to the first well, mix well, and suck 100 μL from it and discard. […]

Compound | Minimum Bacteriostatic Concentration [1] | Minimum Bacteriostatic Concentration [2] | Minimum Bacteriostatic Concentration [3] | Minimum Bacteriostatic Concentration [4] | Minimum Bacteriostatic Concentration [5] | Minimum Bacteriostatic Concentration [6] | Minimum Bacteriostatic Concentration [7] | Minimum Bacteriostatic Concentration [8] | inhibitory effect on drug-resistant bacteria (result in words) [9] | MIC ([1]; Staphylococcus aureus, drug-resistant MRSA, strain not named in the text (value matches 18-222)) | MIC ([5]; Pseudomonas aeruginosa, MDR-PA, strain not named in the text (value matches 18-174))
COc1ccc(C=CC(=O)O)cc1 [4-methoxycinnamic acid] | >128 µg/mL | >128 µg/mL | >128 µg/mL | >128 µg/mL | >128 µg/mL | >128 µg/mL | >128 µg/mL | >128 µg/mL | no inhibitory effect |  | 
gentamicin | 128 µg/mL | 2 µg/mL | 0.0625 µg/mL | >128 µg/mL | 0.0625 µg/mL | 0.0625 µg/mL | >128 µg/mL | >128 µg/mL |  |  | 
COc1ccc(/C=C/C(=O)OCCc2ccc(O)c(O)c2)cc1 [(E)-3,4-dihydroxyphenethyl 3-(4-methoxyphenyl)acrylate] | 4 µg/mL | 32 µg/mL | >128 µg/mL | >128 µg/mL | 8 µg/mL | >128 µg/mL | >128 µg/mL | >128 µg/mL | excellent antibacterial activity | 4 µg/mL (≈ 12.7 µM) | 8 µg/mL (≈ 25.5 µM)
CO/N=C(\C(=O)N[C@@H]1C(=O)N2C(C(=O)O)=C(CSc3nc(=O)c(=O)[nH]n3C)CS[C@H]12)c1csc(N)n1 [Ceftriaxone sodium, ceftriaxone sodium] | >128 µg/mL | >128 µg/mL | 8 µg/mL | >128 µg/mL | 128 µg/mL | 16 µg/mL | >128 µg/mL | >128 µg/mL |  |  | 
OCCc1ccc(O)c(O)c1 [Hydroxytyrosol] | >128 µg/mL | >128 µg/mL | >128 µg/mL | >128 µg/mL | >128 µg/mL | >128 µg/mL | >128 µg/mL | >128 µg/mL | no inhibitory effect |  | 
Cc1nnc(SCC2=C(C(=O)O)N3C(=O)[C@@H](NC(=O)Cn4cnnn4)[C@H]3SC2)s1 [Cefazolin sodium, cefazolin sodium] | >128 µg/mL | >128 µg/mL | 32 µg/mL | >128 µg/mL | 8 µg/mL | 128 µg/mL | >128 µg/mL | >128 µg/mL |  |  | 
